Measurements published in ChEMBL document CHEMBL1140499, “Novel heparin/heparan sulfate mimics as inhibitors of HGF/SF-induced MET activation” (2007).
Activity calls are given as the source filed them. The rule behind the calls is not given here.

Legend:
[1] = organism: Cricetulus griseus; experiment: Inhibition of HGF/SF-induced MET receptor activation assessed as ERK activation at 100 ug/mL by Western blot
[2] = organism: Cricetulus griseus; experiment: Inhibition of FGF2-induced FGF receptor activation assessed as ERK activation at 100 ug/mL by Western blot
[3] = tested on: MDCK; experiment: Inhibition of HGF/SF-induced migration of MDCK cells at 100 ug/mL after 4 hrs; format: functional; settings: Canis lupus familiaris

In the case of `O=C(O)c1cc(OC[C@@H](COS(=O)(=O)O)OS(=O)(=O)O)ccc1OC[C@H](COS(=O)(=O)O)OS(=O)(=O)O`, the Activity [1] is reported as “Active”, the Activity [2] is reported as “inactive” and the inhibition at 100 µg/mL [3] is reported as 57%.
In the case of `O=C(O)c1cc(OC[C@@H](COS(=O)(=O)O)OS(=O)(=O)O)ccc1OCCCCOS(=O)(=O)O`, the Activity [1] is reported as “Active”, the Activity [2] is reported as “inactive” and the inhibition at 100 µg/mL [3] is reported as 70%.
